Data on four molecules can be found in BindingDB's records for doi:10.1021/jm00350a005 (1982).

pIC50, pKd: −log10 of the molar value.

Assay [1] addresses 5-hydroxytryptamine receptor 1A/1B/1D/1E/1F/2A/2B/2C/3A/3B/3C/3D/3E/4/5A/6/7. The experiment in a line: Ability to displace [3H]5-HT binding to 5-hydroxytryptamine receptor using 1 uM LSD as masking ligand, activity is expressed as Kd.
The target is the same in assay [2]. The experiment in a line: Ability to displace [3H]5-HT binding to 5-hydroxytryptamine receptor site using 1 uM LSD as masking ligand, […].
The target is the same in assay [3]. The experiment in a line: Ability to displace [3H]5-HT binding from 5-hydroxytryptamine receptor site using 1 uM LSD as masking ligand.
Assay [4] shares this target. The experiment in a line: Ability to displace [3H]5-HT binding to 5-hydroxytryptamine receptor site using 1 uM LSD as masking ligand.

Usually pKd stands for the negative decadic logarithm of the Kd, by convention in mol/L. By pIC50 is commonly meant the negative decadic logarithm of the IC50, by convention in mol/L. Read a low pIC50 as a large IC50.

On to `CSc1ccc2[nH]cc(CCN(C)C)c2c1`, for which the pKd in assay [1] is 7.37.
With `CN(C)CCc1c[nH]c2cc3c(cc12)OCO3`, in assay [2], the pKd is 5.08.
Turning to `CC(C)N(CCc1c[nH]c2cc3c(cc12)OCO3)C(C)C`, the pIC50 in assay [3] was 3.03.
Molecule `CSc1cccc2[nH]cc(CCN(C)C)c12` showed a pIC50 in assay [4] of 3.82. Further, in assay [2], the pKd is 5.08.
